From ChEMBL document CHEMBL4840336, “Discovery, Optimization, and Structure-Activity Relationship Study of Novel and Potent RSK4 Inhibitors as Promising Agents for the Treatment of Esophageal Squamous Cell Carcinoma” (J Med Chem, 2021)
Blank lines part the entries; values can stand above or below the molecule they belong to. Active and inactive are the calls of the source. No cut-off for these calls is given here.

Tests used:
[1] = test system: TE-10; assay: Antitumor activity against human TE-10 cells xenografed in nude mouse assessed as tumor growth inhibition at 50 mg/kg, ip administered for 20 consecutive days by caliper method relative to control; assay type: functional; settings: TE-10, ip, 480 h, time 20 day, read-out: TGI
[2] = target: T1, Ribosomal protein S6 kinase alpha-2 (Homo sapiens, UniProt Q15349); assay: Inhibition of full length recombinant GST-tagged human RSK3 expressed in insect cell using biotin-labelled AGAGRSRHSSYPAGT-OH as substrate in presence of ATP
T1 sequence (Q15349 whole entry): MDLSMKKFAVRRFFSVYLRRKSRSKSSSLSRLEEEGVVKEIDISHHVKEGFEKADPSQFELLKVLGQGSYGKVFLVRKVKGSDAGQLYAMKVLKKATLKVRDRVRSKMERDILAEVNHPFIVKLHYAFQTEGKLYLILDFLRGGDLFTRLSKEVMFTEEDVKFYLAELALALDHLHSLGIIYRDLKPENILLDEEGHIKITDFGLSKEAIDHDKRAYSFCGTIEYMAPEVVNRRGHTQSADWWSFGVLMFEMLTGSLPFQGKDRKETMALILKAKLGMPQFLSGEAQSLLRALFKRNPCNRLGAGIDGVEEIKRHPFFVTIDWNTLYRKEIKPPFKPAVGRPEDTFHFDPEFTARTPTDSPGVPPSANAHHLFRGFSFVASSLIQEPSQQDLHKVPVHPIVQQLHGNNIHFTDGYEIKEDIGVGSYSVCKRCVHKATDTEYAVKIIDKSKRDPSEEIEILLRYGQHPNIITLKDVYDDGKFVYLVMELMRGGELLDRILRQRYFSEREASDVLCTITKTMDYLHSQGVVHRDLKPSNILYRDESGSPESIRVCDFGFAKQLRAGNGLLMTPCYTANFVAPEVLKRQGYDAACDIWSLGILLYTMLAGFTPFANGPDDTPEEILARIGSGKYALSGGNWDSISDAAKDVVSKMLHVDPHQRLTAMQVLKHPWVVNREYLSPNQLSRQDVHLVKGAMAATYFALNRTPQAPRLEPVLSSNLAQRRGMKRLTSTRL

[3] = target: T2, Ribosomal protein S6 kinase alpha-3 (Homo sapiens, UniProt P51812); assay: Inhibition of full length recombinant His-tagged human RSK2 expressed in baculovirus expression system using biotin-labelled AGAGRSRHSSYPAGT-OH as substrate in presence of ATP
T2 sequence (P51812 whole entry): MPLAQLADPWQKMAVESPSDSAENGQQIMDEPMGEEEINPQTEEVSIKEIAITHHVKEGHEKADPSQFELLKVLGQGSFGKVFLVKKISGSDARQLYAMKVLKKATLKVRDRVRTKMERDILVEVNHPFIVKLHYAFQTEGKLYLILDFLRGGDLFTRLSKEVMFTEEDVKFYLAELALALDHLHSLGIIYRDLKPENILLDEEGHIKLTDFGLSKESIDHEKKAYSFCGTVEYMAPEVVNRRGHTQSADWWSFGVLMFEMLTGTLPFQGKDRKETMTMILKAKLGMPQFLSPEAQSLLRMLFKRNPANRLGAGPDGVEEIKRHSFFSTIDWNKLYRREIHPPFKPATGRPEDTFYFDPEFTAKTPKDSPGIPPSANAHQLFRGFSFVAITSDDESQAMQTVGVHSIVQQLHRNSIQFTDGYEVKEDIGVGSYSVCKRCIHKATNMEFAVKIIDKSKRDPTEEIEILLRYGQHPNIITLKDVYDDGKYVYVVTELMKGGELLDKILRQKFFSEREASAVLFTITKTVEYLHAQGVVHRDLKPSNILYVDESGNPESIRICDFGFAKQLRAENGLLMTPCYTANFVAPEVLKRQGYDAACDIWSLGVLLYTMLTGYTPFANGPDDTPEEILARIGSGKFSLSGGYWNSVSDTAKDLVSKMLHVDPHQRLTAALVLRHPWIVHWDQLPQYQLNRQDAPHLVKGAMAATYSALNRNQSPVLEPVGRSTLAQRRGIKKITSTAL

[4] = target: T3, Ribosomal protein S6 kinase alpha-1 (Homo sapiens, UniProt Q15418); assay: Inhibition of full length recombinant His-tagged human RSK1 expressed in baculovirus expression system using biotin-labelled AGAGRSRHSSYPAGT-OH as substrate in presence of ATP
T3 sequence (Q15418 whole entry): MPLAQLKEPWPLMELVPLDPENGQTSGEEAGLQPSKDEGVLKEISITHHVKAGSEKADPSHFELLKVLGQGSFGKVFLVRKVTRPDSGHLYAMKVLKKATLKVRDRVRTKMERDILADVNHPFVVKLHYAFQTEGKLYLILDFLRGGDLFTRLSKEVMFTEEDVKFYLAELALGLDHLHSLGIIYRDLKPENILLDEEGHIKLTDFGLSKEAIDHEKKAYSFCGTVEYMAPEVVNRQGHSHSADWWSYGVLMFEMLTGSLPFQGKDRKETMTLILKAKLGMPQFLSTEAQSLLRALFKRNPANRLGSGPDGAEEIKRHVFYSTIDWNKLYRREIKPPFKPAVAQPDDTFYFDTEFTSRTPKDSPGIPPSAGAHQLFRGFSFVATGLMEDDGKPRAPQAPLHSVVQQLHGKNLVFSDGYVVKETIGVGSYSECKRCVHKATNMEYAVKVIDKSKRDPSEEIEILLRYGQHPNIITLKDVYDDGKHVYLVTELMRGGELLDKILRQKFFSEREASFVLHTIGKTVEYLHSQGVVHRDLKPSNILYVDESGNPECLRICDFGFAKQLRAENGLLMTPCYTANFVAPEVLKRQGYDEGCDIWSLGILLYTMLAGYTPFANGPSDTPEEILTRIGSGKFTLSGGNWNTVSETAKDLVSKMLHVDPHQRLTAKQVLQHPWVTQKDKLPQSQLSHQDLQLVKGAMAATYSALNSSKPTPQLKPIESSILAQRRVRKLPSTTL

[5] = target: T3, Ribosomal protein S6 kinase alpha-1; assay: Inhibition of RSK1 (unknown origin) at 100 nM relative to control
[6] = test system: TE-10; assay: Antiproliferative activity against human TE-10 cells assessed as inhibition of cell proliferation measured up to 48 hrs by CCK-8 assay; assay type: functional, cell-based
[7] = test system: TE-10; assay: Antitumor activity against human TE-10 cells xenografed in nude mouse assessed as tumor growth inhibition at 25 mg/kg, ip administered for 20 consecutive days by caliper method relative to control; assay type: functional; settings: TE-10, ip, 480 h, time 20 day, read-out: TGI
[8] = target: T1, Ribosomal protein S6 kinase alpha-2; assay: Inhibition of RSK3 in human TE-10 cells assessed as suppression of HistoneH3 phosphorylation at residue 35 at 1 to 10 uM measured after 24 hrs by Western blot analysis; assay type: cell-based; settings: dose 1-10 µM
[9] = Half life in iv dosed Sprague-Dawley rat; assay type: ADME, organism-based; settings: in vivo
[10] = Volume of distribution at steady state in iv dosed Sprague-Dawley rat; assay type: ADME, organism-based; settings: in vivo, read-out: Vdss
[11] = test system: TE-10; assay: Inhibition of cell invasion in human TE-10 cells measured after 24 hrs by Giemsa staining based transwell invasion assay; assay type: functional; settings: TE-10, 24 h
[12] = target: T1, Ribosomal protein S6 kinase alpha-2; assay: Inhibition of RSK3 (unknown origin) at 100 nM relative to control
[13] = target: T2, Ribosomal protein S6 kinase alpha-3; assay: Inhibition of RSK2 (unknown origin) at 100 nM relative to control
[14] = Toxicity in nude mouse xenografted with human TE-10 cells assessed as morphological changes in lung at 25 to 50 mg/kg, ip administered for 20 consecutive days by hematoxylin-eosin staining based analysis; assay type: organism-based; settings: in vivo, 480 h, dose 25-50 mg/kg, time 20 day
[15] = Toxicity in nude mouse xenografted with human TE-10 cells assessed as morphological changes in kidney at 25 to 50 mg/kg, ip administered for 20 consecutive days by hematoxylin-eosin staining based analysis; assay type: organism-based; settings: in vivo, 480 h, dose 25-50 mg/kg, time 20 day
[16] = Clearance in iv dosed Sprague-Dawley rat; assay type: ADME, organism-based; settings: in vivo
[17] = target: T3, Ribosomal protein S6 kinase alpha-1; assay: Inhibition of RSK1 in human TE-10 cells assessed as suppression of EIF4B phosphorylation at 1 to 10 uM measured after 24 hrs by Western blot analysis; assay type: cell-based; settings: dose 1-10 µM
[18] = target: T2, Ribosomal protein S6 kinase alpha-3; assay: Inhibition of RSK2 in human TE-10 cells assessed as suppression of HSP27 at residue 32 phosphorylation at 1 to 10 uM measured after 24 hrs by Western blot analysis; assay type: cell-based; settings: dose 1-10 µM
[19] = Toxicity in nude mouse xenografted with human TE-10 cells assessed as morphological changes in liver at 25 to 50 mg/kg, ip administered for 20 consecutive days by hematoxylin-eosin staining based analysis; assay type: organism-based; settings: in vivo, 480 h, dose 25-50 mg/kg, time 20 day
[20] = target: T1, Ribosomal protein S6 kinase alpha-2; assay: Inhibition of RSK3 in human TE-10 cells assessed as suppression of c-fos phosphorylation at 1 to 10 uM measured after 24 hrs by Western blot analysis; assay type: cell-based; settings: dose 1-10 µM
[21] = target: T2, Ribosomal protein S6 kinase alpha-3; assay: Inhibition of RSK2 in human TE-10 cells assessed as suppression of creb-phosphorylation at 1 to 10 uM measured after 24 hrs by Western blot analysis; assay type: cell-based; settings: dose 1-10 µM
[22] = test system: Mus musculus; assay: In vivo inhibition of RSK4 in nude mouse xenografted with human TE-10 cells assessed as suppression of GSK3beta phosphorylation at 25 to 50 mg/kg, ip administered for 20 consecutive days; assay type: functional, organism-based; settings: dose lower […], dose upper 50.0 mg/kg, time 20.0 day
[23] = Toxicity in nude mouse xenografted with human TE-10 cells assessed as morphological changes in heart at 25 to 50 mg/kg, ip administered for 20 consecutive days by hematoxylin-eosin staining based analysis; assay type: organism-based; settings: in vivo, 480 h, dose 25-50 mg/kg, time 20 day
[24] = Toxicity in nude mouse xenografted with human TE-10 cells assessed as effect on body weight loss at 25 to 50 mg/kg, ip administered for 20 consecutive days; assay type: organism-based; settings: in vivo, 480 h, dose 25-50 mg/kg, time 20 day
[25] = target: T3, Ribosomal protein S6 kinase alpha-1; assay: Inhibition of RSK1 in human TE-10 cells assessed as suppression of P27KIP1 phosphorylation at 1 to 10 uM measured after 24 hrs by Western blot analysis; assay type: cell-based; settings: dose 1-10 µM
[26] = target: T1, Ribosomal protein S6 kinase alpha-2; assay: Inhibition of RSK3 in human TE-10 cells assessed as suppression of HistoneH3 phosphorylation at residue 34 at 1 to 10 uM measured after 24 hrs by Western blot analysis; assay type: cell-based; settings: dose 1-10 µM
[27] = test system: Mus musculus; assay: In vivo inhibition of RSK4 in nude mouse xenografted with human TE-10 cells assessed as suppression of RPS6 phosphorylation at 25 to 50 mg/kg, ip administered for 20 consecutive days; assay type: functional, organism-based; settings: dose lower […], dose upper 50.0 mg/kg, time 20.0 day
[28] = target: T2, Ribosomal protein S6 kinase alpha-3; assay: Inhibition of RSK2 in human TE-10 cells assessed as suppression of HSP27 at residue 33 phosphorylation at 1 to 10 uM measured after 24 hrs by Western blot analysis; assay type: cell-based; settings: dose 1-10 µM
[29] = Toxicity in nude mouse xenografted with human TE-10 cells assessed as effect on organ damage at 25 to 50 mg/kg, ip administered for 20 consecutive days; assay type: organism-based; settings: in vivo, 480 h, dose 25-50 mg/kg, time 20 day

Compound: CC(C)CCN1c2nc(Nc3cc(F)c(O)c(F)c3)ncc2N(C)C(=O)C1C (centres undefined)
- inhibition in vivo at 50 mg/kg [1]: 41.6%

- IC50 [2]: 4 nM
- IC50 [3]: 4 nM
- IC50 [4]: 6 nM
Compound: CN1CCN(c2ccc(-c3ccncc3-c3cc(F)c(O)c(F)c3)cc2)CC1

- inhibition [5]: > 90%
- inhibition [8]: inactive
- half-life [9]: 55.2 min
- Vd [10]: 1.28 L/kg
- IC50 [11]: 983 nM
- inhibition [12]: > 90%
- inhibition [13]: > 90%
- clearance [16]: 67.5 mL/min/kg
- inhibition [17]: inactive
- inhibition [18]: inactive
- inhibition [20]: inactive
- inhibition [21]: inactive
- inhibition [25]: inactive
- inhibition [26]: inactive
- inhibition [28]: inactive
Compound: CC(C)C1OC(=O)N(C2CCCC2)c2nc(Nc3cc(F)c(O)c(F)c3)ncc21 (centres undefined)
- IC50 ([6]; TE-10, 48 h): 570 nM
- inhibition ([6]; time hrs <=48): Dose-Dependent Effect
- inhibition in vivo at 25 mg/kg [7]: 73.4%
- inhibition in vivo at 50 mg/kg [1]: 48.7%
- Activity [14]: Non-Toxic
- Activity [15]: Non-Toxic
- Activity [19]: Non-Toxic
- inhibition [22]: inactive
- Activity [23]: Non-Toxic
- Activity [24]: Non-Toxic
- inhibition [27]: inactive
- Activity [29]: Non-Toxic

- IC50 [2]: 13 nM
- IC50 [3]: 6 nM
- IC50 [4]: 5 nM
Compound: Oc1c(F)cc(-c2cnccc2-c2ccc(N3CCOCC3)cc2)cc1F
